Reference: patent publication US10307413B2, “Tetrahydro- and dihydro-isoquinoline PRMT5 inhibitors and uses thereof” (Epizyme, Inc., priority 2013, dated 2019)

Experiments:
PRMT5/MEP50 = PRMT5/MEP50 (Homo sapiens (Human), UniProt O14744); assay: PRMT5 Biochemical Assay (PRMT5/MEP50 enzyme assay on peptide substrate, 3H-SAM Flashplate); details: PRMT5 biochemical assay
Summary of the method: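 Radiometric methylation of a biotin-tagged H4(1-15) peptide by human PRMT5/MEP50 from baculovirus/Sf9, with ³H-SAM incorporation read on streptavidin Flashplates. Buffer: Bicine pH 7.6, TCEP, BSG, Tween20; compound preincubated 30 min at 25 °C; stopped with 600 µM final unlabeled SAM. DMSO and SAH controls; IC50 from fitted % inhibition.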

[1] = test system: symmetric di-methyl arginine in Z-138 cells; assay: Z-138 Methylation Assay (In Cell Western for symmetric di-methyl arginine and DNA content); type: cell-based; details: Homo sapiens, In Cell Western methylation, read-out: ICW EC50
Summary of the method: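 Z-138 cells (50,000 cells/mL) treated with compound 96 h at 37 °C, then fixed and stained for symmetric di-methyl arginine (800 nm) with DRAQ5 DNA counterstain (700 nm) on Licor Odyssey.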

Z-138 cell line = assay: Z-138 Proliferation Assay (Cell Titer Glo, 5 days); type: cell-based; details: Homo sapiens, 120 h; Z-138 cells, 5 days, Cell Titer Glo; read-out: Proliferation EC50
Summary of the method: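 Z-138 cells exposed 5 days at 37 °C, 5% CO2 to nine-point 3-fold dilutions (final top 20 μM, 0.2% DMSO), in triplicate. Viability read as ATP by CellTiter-Glo luminescence; IC50 from 4-parameter fit of normalized dose-response curves.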

Sequence of PRMT5/MEP50 (O14744 other isoform, or with tags, fused parts or gaps): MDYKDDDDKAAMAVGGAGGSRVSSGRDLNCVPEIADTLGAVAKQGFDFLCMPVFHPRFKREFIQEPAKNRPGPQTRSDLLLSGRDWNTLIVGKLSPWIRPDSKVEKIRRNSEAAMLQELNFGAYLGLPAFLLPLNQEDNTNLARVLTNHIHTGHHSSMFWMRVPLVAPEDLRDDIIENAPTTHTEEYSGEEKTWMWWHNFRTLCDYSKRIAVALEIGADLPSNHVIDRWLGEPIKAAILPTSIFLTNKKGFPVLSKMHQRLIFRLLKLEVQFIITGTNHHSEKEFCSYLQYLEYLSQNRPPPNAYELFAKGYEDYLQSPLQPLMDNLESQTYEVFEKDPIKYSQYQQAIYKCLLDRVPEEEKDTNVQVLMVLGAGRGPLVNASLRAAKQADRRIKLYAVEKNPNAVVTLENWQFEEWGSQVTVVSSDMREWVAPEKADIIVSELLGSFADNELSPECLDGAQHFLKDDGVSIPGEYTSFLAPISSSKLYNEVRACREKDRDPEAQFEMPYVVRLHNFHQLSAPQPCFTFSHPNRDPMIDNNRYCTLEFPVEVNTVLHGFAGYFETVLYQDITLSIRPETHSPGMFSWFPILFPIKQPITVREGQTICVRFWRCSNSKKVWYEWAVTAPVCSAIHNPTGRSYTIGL
Sequence of PRMT5/MEP50 (Q9BQA1 other isoform, or with tags, fused parts or gaps partner): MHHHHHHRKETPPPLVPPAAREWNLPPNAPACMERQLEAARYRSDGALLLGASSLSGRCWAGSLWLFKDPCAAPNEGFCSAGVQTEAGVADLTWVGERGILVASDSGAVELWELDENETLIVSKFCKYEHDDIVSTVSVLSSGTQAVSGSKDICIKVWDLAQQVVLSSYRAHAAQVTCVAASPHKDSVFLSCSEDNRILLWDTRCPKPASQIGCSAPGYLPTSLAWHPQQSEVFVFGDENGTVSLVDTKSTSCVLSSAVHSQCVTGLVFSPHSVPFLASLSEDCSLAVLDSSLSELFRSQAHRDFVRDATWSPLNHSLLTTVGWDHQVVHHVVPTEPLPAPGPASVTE

CCN1CCN(c2nc(NC3COC3)cc(C(=O)NC[C@H](O)CN3CCc4ccccc4C3)n2)CC1 [Compound 477]
IC50 (PRMT5/MEP50): < 100 nM
EC50 [1]: < 100 nM
EC50 (Z-138 cell line): < 100 nM

CC(C)N1CCN(c2nc(NC3COC3)cc(C(=O)NC[C@H](O)CN3CCc4ccccc4C3)n2)CC1 [Compound 478]
IC50 (PRMT5/MEP50): < 100 nM
EC50 [1]: < 100 nM
EC50 (Z-138 cell line): < 100 nM

O=C(NC[C@H](O)CN1CCc2ccccc2C1)c1cc(NC2COC2)nc(C2CC2)n1 [Compound 480]
IC50 (PRMT5/MEP50): < 100 nM
EC50 [1]: < 100 nM
EC50 (Z-138 cell line): 101 to 1000 nM

CN(CCN)c1nc(NC2CNC2)cc(C(=O)NC[C@H](O)CN2CCc3ccccc3C2)n1 [Compound 481]
IC50 (PRMT5/MEP50): < 100 nM
EC50 [1]: 101 to 1000 nM
EC50 (Z-138 cell line): 1000 to 10000 nM

CNCCN(C)c1nc(NC2CNC2)cc(C(=O)NC[C@H](O)CN2CCc3ccccc3C2)n1 [Compound 482]
IC50 (PRMT5/MEP50): < 100 nM
EC50 [1]: 101 to 1000 nM
EC50 (Z-138 cell line): 1000 to 10000 nM

CC(=O)N1CCN(c2nc(NC3CNC3)cc(C(=O)NC[C@H](O)CN3CCc4ccccc4C3)n2)CC1 [Compound 483]
IC50 (PRMT5/MEP50): < 100 nM
EC50 [1]: < 100 nM
EC50 (Z-138 cell line): 1000 to 10000 nM

CCC(=O)N1CCN(c2nc(NC3CNC3)cc(C(=O)NC[C@H](O)CN3CCc4ccccc4C3)n2)CC1 [Compound 484]
IC50 (PRMT5/MEP50): < 100 nM
EC50 [1]: < 100 nM
EC50 (Z-138 cell line): 1000 to 10000 nM

O=C(NC[C@H](O)CN1CCc2ccccc2C1)c1cc(NC2CNC2)nc(N2CCN(C(=O)C3CC3)CC2)n1 [Compound 485]
IC50 (PRMT5/MEP50): < 100 nM
EC50 [1]: 101 to 1000 nM
EC50 (Z-138 cell line): 1000 to 10000 nM

CCOc1nc(NC2CNC2)cc(C(=O)NC[C@H](O)CN2CCc3ccccc3C2)n1 [Compound 486]
IC50 (PRMT5/MEP50): < 100 nM
EC50 [1]: 101 to 1000 nM
EC50 (Z-138 cell line): 1000 to 10000 nM

CCc1nc(NC2CNC2)cc(C(=O)NC[C@H](O)CN2CCc3ccccc3C2)n1 [Compound 487]
IC50 (PRMT5/MEP50): < 100 nM
EC50 [1]: 101 to 1000 nM
EC50 (Z-138 cell line): 1000 to 10000 nM

CCC(=O)N1CC(Nc2cc(C(=O)NC[C@H](O)CN3CCc4ccccc4C3)ccn2)C1 [Compound 488]
IC50 (PRMT5/MEP50): < 100 nM
EC50 [1]: < 100 nM
EC50 (Z-138 cell line): < 100 nM

CC(C)C(=O)N1CC(Nc2cc(C(=O)NC[C@H](O)CN3CCc4ccccc4C3)ccn2)C1 [Compound 489]
IC50 (PRMT5/MEP50): < 100 nM
EC50 [1]: < 100 nM
EC50 (Z-138 cell line): < 100 nM

O=C(NC[C@H](O)CN1CCc2ccccc2C1)c1ccnc(NC2CN(C(=O)C3CC3)C2)c1 [Compound 490]
IC50 (PRMT5/MEP50): < 100 nM
EC50 [1]: < 100 nM
EC50 (Z-138 cell line): < 100 nM

O=C(NC[C@H](O)CN1CCc2ccccc2C1)c1cc(N[C@H]2C[C@@H](O)C2)ncn1 [Compound 491]
IC50 (PRMT5/MEP50): < 100 nM
EC50 [1]: < 100 nM
EC50 (Z-138 cell line): 101 to 1000 nM

CC(NC(=O)c1cc(NC2COC2)ncn1)[C@@H](O)CN1CCc2ccccc2C1 (stereo partly drawn) [Compound 492]
IC50 (PRMT5/MEP50): < 100 nM
EC50 [1]: < 100 nM
EC50 (Z-138 cell line): 1000 to 10000 nM

CN(C)c1nc(NC2COC2)cc(C(=O)NC[C@H](O)CN2CCc3ccccc3C2)n1 [Compound 494]
IC50 (PRMT5/MEP50): < 100 nM
EC50 [1]: < 100 nM
EC50 (Z-138 cell line): 101 to 1000 nM

CN(CCO)c1nc(NC2COC2)cc(C(=O)NC[C@H](O)CN2CCc3ccccc3C2)n1 [Compound 495]
IC50 (PRMT5/MEP50): < 100 nM
EC50 [1]: < 100 nM
EC50 (Z-138 cell line): 101 to 1000 nM

COCCN1CCN(c2nc(NC3COC3)cc(C(=O)NC[C@H](O)CN3CCc4ccccc4C3)n2)CC1 [Compound 496]
IC50 (PRMT5/MEP50): < 100 nM
EC50 [1]: < 100 nM
EC50 (Z-138 cell line): < 100 nM

CC(=O)N1CCN(c2nc(NC3COC3)cc(C(=O)NC[C@H](O)CN3CCc4ccccc4C3)n2)CC1 [Compound 497]
IC50 (PRMT5/MEP50): < 100 nM
EC50 [1]: < 100 nM
EC50 (Z-138 cell line): < 100 nM

O=C(NC[C@H](O)CN1CCc2ccccc2C1)c1cc(NC2COC2)nc(N2CCN(C(=O)C3CC3)CC2)n1 [Compound 498]
IC50 (PRMT5/MEP50): < 100 nM
EC50 [1]: < 100 nM
EC50 (Z-138 cell line): < 100 nM

CS(=O)(=O)N1CCN(c2nc(NC3COC3)cc(C(=O)NC[C@H](O)CN3CCc4ccccc4C3)n2)CC1 [Compound 499]
IC50 (PRMT5/MEP50): < 100 nM
EC50 [1]: < 100 nM
EC50 (Z-138 cell line): 101 to 1000 nM

CC(C)N1CCN(c2nc(NC3CNC3)cc(C(=O)NC[C@H](O)CN3CCc4ccccc4C3)n2)CC1 [Compound 500]
IC50 (PRMT5/MEP50): < 100 nM
EC50 [1]: 101 to 1000 nM
EC50 (Z-138 cell line): 10000 to 50000 nM

COc1nc(NC2CNC2)cc(C(=O)NC[C@H](O)CN2CCc3ccccc3C2)n1 [Compound 501]
IC50 (PRMT5/MEP50): < 100 nM
EC50 [1]: 101 to 1000 nM
EC50 (Z-138 cell line): 1000 to 10000 nM

O=C(NC[C@H](O)CN1CCc2ccccc2C1)c1cc(NC2CNC2)nc(N2CCC2)n1 [Compound 502]
IC50 (PRMT5/MEP50): < 100 nM
EC50 [1]: 101 to 1000 nM
EC50 (Z-138 cell line): 1000 to 10000 nM

CCCC(=O)N1CC(Nc2cc(C(=O)NC[C@H](O)CN3CCc4ccccc4C3)ccn2)C1 [Compound 503]
IC50 (PRMT5/MEP50): < 100 nM
EC50 [1]: < 100 nM
EC50 (Z-138 cell line): < 100 nM

CC(C)CC(=O)N1CC(Nc2cc(C(=O)NC[C@H](O)CN3CCc4ccccc4C3)ccn2)C1 [Compound 504]
IC50 (PRMT5/MEP50): < 100 nM
EC50 [1]: < 100 nM
EC50 (Z-138 cell line): < 100 nM

CC(C)(C)C(=O)N1CC(Nc2cc(C(=O)NC[C@H](O)CN3CCc4ccccc4C3)ccn2)C1 [Compound 505]
IC50 (PRMT5/MEP50): < 100 nM
EC50 [1]: < 100 nM
EC50 (Z-138 cell line): 101 to 1000 nM

CNC(=O)[C@H]1C[C@H](Nc2cc(C(=O)NC[C@H](O)CN3CCc4ccccc4C3)ncn2)C1 [Compound 506]
IC50 (PRMT5/MEP50): < 100 nM
EC50 [1]: < 100 nM
EC50 (Z-138 cell line): 101 to 1000 nM

CN(C)C(=O)[C@H]1C[C@H](Nc2cc(C(=O)NC[C@H](O)CN3CCc4ccccc4C3)ncn2)C1 [Compound 507]
IC50 (PRMT5/MEP50): < 100 nM
EC50 [1]: < 100 nM
EC50 (Z-138 cell line): 101 to 1000 nM

O=C(NC[C@H](O)CN1CCc2ccccc2C1)c1cc(N[C@H]2C[C@H](C(=O)N3CCC3)C2)ncn1 [Compound 509]
IC50 (PRMT5/MEP50): < 100 nM
EC50 [1]: < 100 nM
EC50 (Z-138 cell line): < 100 nM

O=C(NC[C@H](O)CN1CCc2ccccc2C1)c1cc(N[C@H]2C[C@H](C(=O)N3CCCCC3)C2)ncn1 [Compound 511]
IC50 (PRMT5/MEP50): < 100 nM
EC50 [1]: < 100 nM
EC50 (Z-138 cell line): < 100 nM

CNC(=O)[C@H]1C[C@@H](Nc2cc(C(=O)NC[C@H](O)CN3CCc4ccccc4C3)ncn2)C1 [Compound 513]
IC50 (PRMT5/MEP50): < 100 nM
EC50 [1]: < 100 nM
EC50 (Z-138 cell line): 101 to 1000 nM

CN(C)C(=O)[C@H]1C[C@@H](Nc2cc(C(=O)NC[C@H](O)CN3CCc4ccccc4C3)ncn2)C1 [Compound 515]
IC50 (PRMT5/MEP50): < 100 nM
EC50 [1]: < 100 nM
EC50 (Z-138 cell line): 101 to 1000 nM

O=C(NC[C@H](O)CN1CCc2ccccc2C1)c1cc(N[C@H]2C[C@@H](C(=O)N3CCC3)C2)ncn1 [Compound 517]
IC50 (PRMT5/MEP50): < 100 nM
EC50 [1]: < 100 nM
EC50 (Z-138 cell line): 101 to 1000 nM

O=C(NC[C@H](O)CN1CCc2ccccc2C1)c1cc(N[C@H]2C[C@@H](C(=O)N3CCCCC3)C2)ncn1 [Compound 519]
IC50 (PRMT5/MEP50): < 100 nM
EC50 [1]: < 100 nM
EC50 (Z-138 cell line): 101 to 1000 nM

O=C(NC[C@H](O)CN1CCc2ccccc2C1)c1cc(N[C@H]2C[C@H](O)C2)ncn1 [Compound 521]
IC50 (PRMT5/MEP50): < 100 nM
EC50 [1]: < 100 nM
EC50 (Z-138 cell line): 101 to 1000 nM

CC(C)(C)c1nc(NC2CNC2)cc(C(=O)NC[C@H](O)CN2CCc3ccccc3C2)n1 [Compound 522]
IC50 (PRMT5/MEP50): < 100 nM
EC50 [1]: < 100 nM
EC50 (Z-138 cell line): 1000 to 10000 nM

COC(CNC(=O)c1cc(NC2COC2)ncn1)CN1CCc2ccccc2C1 (stereo not drawn) [Compound 523]
IC50 (PRMT5/MEP50): 1000 to 10000 nM
EC50 [1]: > 1000 nM
EC50 (Z-138 cell line): > 5000 nM

CC(=O)N1CC(Nc2cc(C(=O)NC(C)C(O)CN3CCc4ccccc4C3)ncn2)C1 (stereo not drawn) [Compound 524]
IC50 (PRMT5/MEP50): 101 to 1000 nM
EC50 [1]: 101 to 1000 nM
EC50 (Z-138 cell line): > 5000 nM
